According to patent US20080004253A1, “Thiazolopyrimidine modulators of TRPV1” (priority 2006, published 2008):

Key:
human TRPV1 = molecular target: T1, human TRPV1 (Homo sapiens, UniProt Q8NER1); assay: Functional assay: block of capsaicin-induced Ca2+ influx, human assay (hTRPV1/HEK293, FLIPR); format: cell-based; conditions: hTRPV1/HEK293 cells, 150 nM capsaicin challenge, Fluo-3 fluorescence; mean; > value = solubility limit in assay medium
T1 construct: expressed in transfected cells; host or cells: HEK293 (hTRPV1/HEK293), zeocin selection
How it was run: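 HEK293 cells stably expressing human TRPV1, fluo3-loaded, preincubated 30 min with compound (serial 3-fold dilutions from 10 μM, duplicate) in 20 μM Ca2+ buffer. Capsaicin response taken as fluo3 fluorescence change before vs 100 s after agonist; IC50 by non-linear regression, mean values; free base or TFA salt.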

rat TRPV1 = molecular target: T2, rat TRPV1 (Rattus norvegicus, UniProt O35433); assay: Functional assay: block of capsaicin-induced Ca2+ influx, rat assay (rTRPV1/HEK293, FLIPR); format: cell-based; conditions: rTRPV1/HEK293 cells, capsaicin challenge, Fluo-3 fluorescence; mean; > value = solubility limit in assay medium
T2 construct: expressed in transfected cells; host or cells: HEK293 (rTRPV1/HEK293), geneticin selection
How it was run: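 HEK293 cells expressing rat TRPV1, loaded with fluo3 and preincubated 30 min with compound in 20 μM Ca2+ buffer before capsaicin challenge. Block read as fluo3 fluorescence change over 100 s after agonist, 3-fold series from 10 μM in duplicate. IC50 by non-linear regression, mean values.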

T1 sequence (Q8NER1 whole entry): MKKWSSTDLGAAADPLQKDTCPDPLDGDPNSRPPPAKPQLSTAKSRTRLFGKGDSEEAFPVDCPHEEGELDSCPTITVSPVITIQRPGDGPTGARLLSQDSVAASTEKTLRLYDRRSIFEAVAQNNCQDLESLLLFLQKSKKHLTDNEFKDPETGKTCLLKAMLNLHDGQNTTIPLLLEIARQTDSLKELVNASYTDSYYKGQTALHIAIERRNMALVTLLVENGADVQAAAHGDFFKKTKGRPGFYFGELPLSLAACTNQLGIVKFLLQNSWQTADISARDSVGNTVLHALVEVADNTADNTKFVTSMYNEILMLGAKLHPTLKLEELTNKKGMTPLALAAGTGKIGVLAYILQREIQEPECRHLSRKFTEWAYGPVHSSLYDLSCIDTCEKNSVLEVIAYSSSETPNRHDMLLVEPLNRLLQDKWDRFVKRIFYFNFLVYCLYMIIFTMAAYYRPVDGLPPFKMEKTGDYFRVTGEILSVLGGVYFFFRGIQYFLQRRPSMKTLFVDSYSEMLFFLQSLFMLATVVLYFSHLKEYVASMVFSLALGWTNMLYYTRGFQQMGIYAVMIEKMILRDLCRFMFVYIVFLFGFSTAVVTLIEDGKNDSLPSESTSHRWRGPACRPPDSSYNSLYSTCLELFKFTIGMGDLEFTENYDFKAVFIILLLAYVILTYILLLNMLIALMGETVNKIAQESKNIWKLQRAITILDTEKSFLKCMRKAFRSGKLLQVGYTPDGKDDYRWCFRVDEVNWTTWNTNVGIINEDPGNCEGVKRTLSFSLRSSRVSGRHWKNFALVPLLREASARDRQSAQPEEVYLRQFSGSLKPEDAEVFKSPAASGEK
T2 sequence (O35433 whole entry): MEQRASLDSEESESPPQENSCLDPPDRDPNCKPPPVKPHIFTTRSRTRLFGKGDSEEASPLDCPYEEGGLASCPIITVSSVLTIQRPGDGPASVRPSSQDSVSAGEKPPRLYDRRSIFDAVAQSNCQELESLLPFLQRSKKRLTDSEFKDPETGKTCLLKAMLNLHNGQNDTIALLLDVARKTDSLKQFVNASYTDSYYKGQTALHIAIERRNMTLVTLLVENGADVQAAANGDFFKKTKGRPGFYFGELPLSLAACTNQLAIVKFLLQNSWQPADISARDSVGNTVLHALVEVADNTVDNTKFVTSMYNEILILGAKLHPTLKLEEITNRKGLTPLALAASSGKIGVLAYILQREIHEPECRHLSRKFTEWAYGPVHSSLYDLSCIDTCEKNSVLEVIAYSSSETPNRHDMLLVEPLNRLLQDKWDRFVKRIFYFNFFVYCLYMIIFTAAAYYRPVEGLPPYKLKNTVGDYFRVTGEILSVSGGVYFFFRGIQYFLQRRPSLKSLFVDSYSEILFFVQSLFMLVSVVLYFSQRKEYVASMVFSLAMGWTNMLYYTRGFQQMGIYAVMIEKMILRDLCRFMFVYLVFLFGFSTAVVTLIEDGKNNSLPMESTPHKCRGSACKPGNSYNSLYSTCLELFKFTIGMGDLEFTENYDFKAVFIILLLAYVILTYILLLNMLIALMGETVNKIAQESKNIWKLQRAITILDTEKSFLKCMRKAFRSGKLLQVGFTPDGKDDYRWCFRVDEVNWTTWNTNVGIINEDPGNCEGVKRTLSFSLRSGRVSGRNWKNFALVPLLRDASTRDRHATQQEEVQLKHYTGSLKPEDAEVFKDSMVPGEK

## CC(C)C1CCCN1c1nc(Nc2ccc(C(F)(F)F)c(Cl)c2)c2nc(Nc3c(Cl)cccc3Cl)sc2n1 (racemic) [Example 118, (racemic)-N^7-(3-Chloro-4-trifluoromethyl-phenyl)-N^2-(2,6-dichloro-phenyl)-5-(2-isopropyl-pyrrolidin-1-yl)-thiazolo[5,4-d]pyrimidine-2,7-diamine]
Human TRPV1
  IC50: 56 nM
Rat TRPV1
  IC50: 18 nM

## CSc1ccccc1Nc1nc2c(Nc3ccc(C(F)(F)F)cc3)ncnc2s1 [Example 196, N^2-(2-Methylsulfanyl-phenyl)-N^7-(4-trifluoromethyl-phenyl)-thiazolo[5,4-d]pyrimidine-2,7-diamine]
Human TRPV1
  IC50: 64 nM
Rat TRPV1
  IC50: 37 nM

## CC1CCCCN1c1nc(Nc2ccc(C(F)(F)F)cc2)c2nc(Nc3c(Cl)cccc3Cl)sc2n1 (racemic) [Example 191, (racemic)-N^2-(2,6-Dichloro-phenyl)-5-(2-methyl-piperidin-1-yl)-N^7-(4-trifluoromethyl-phenyl)-thiazolo[5,4-d]pyrimidine-2,7-diamine]
Human TRPV1
  IC50: 14 nM
Rat TRPV1
  IC50: 56 nM

## Cc1cccc(C)c1Nc1nc2c(Nc3ccc(S(=O)(=O)C(F)(F)F)cc3)ncnc2s1 [Example 99, N^2-(2,6-Dimethyl-phenyl)-N^7-(4-trifluoromethanesulfonyl-phenyl)-thiazolo[5,4-d]pyrimidine-2,7-diamine]
Human TRPV1
  IC50: 17 nM
Rat TRPV1
  IC50: 4 nM

## CS(=O)(=O)c1ccc(Nc2ncnc3sc(Nc4c(Cl)cc(C#N)cc4Cl)nc23)cc1 [Example 236, 3,5-Dichloro-4-[7-(4-methanesulfonyl-phenylamino)-thiazolo[5,4-d]pyrimidin-2-ylamino]-benzonitrile]
Human TRPV1
  IC50: 115 nM
Rat TRPV1
  IC50: 38 nM

## CN[C@@H]1CCN(c2nc(Nc3ccc(C(F)(F)F)cc3)c3nc(Nc4c(Cl)cccc4Cl)sc3n2)C1 [Example 183, (3R)-N^2-(2,6-Dichloro-phenyl)-5-(3-methylamino-pyrrolidin-1-yl)-N^7-(4-trifluoromethyl-phenyl)-thiazolo[5,4-d]pyrimidine-2,7-diamine]
Human TRPV1
  IC50: 13600 nM
Rat TRPV1
  IC50: > 20000 nM

## Cc1ccc(Nc2ncnc3sc(Nc4c(C)cccc4C)nc23)cc1O [Example 160, 5-[2-(2,6-Dimethyl-phenylamino)-thiazolo[5,4-d]pyrimidin-7-ylamino]-2-methyl-phenol]
Human TRPV1
  IC50: 2990 nM
Rat TRPV1
  IC50: > 6670 nM

## Cc1nc(Nc2ccc(C(F)(F)F)c(F)c2)c2nc(Nc3c(C)cccc3C)sc2n1 [Example 121, N^2-(2,6-Dimethyl-phenyl)-N^7-(3-fluoro-4-trifluoromethyl-phenyl)-5-methyl-thiazolo[5,4-d]pyrimidine-2,7-diamine]
Human TRPV1
  IC50: 82 nM
Rat TRPV1
  IC50: 25 nM

## CC1CCCCN1c1nc(Nc2ccc(S(C)(=O)=O)cc2)c2nc(Nc3c(Cl)cccc3Cl)sc2n1 (racemic) [Example 179, (racemic)-N^2-(2,6-Dichloro-phenyl)-N^7-(4-methanesulfonyl-phenyl)-5-(2-methyl-piperidin-1-yl)-thiazolo[5,4-d]pyrimidine-2,7-diamine]
Human TRPV1
  IC50: 159 nM
Rat TRPV1
  IC50: 12 nM

## CC1CCCN1c1nc(Nc2ccc(C(F)(F)F)cc2)c2nc(Nc3c(Cl)cccc3Cl)sc2n1 (racemic) [Example 105, (racemic)-N^2-(2,6-Dichloro-phenyl)-5-(2-methyl-pyrrolidin-1-yl)-N^7-(4-trifluoromethyl-phenyl)-thiazolo[5,4-d]pyrimidine-2,7-diamine]
Human TRPV1
  IC50: 24 nM
Rat TRPV1
  IC50: 17 nM

## Cc1nc(Nc2ccc(C(C)(C)C)cc2)c2nc(Nc3c(Cl)cccc3Cl)sc2n1 [Example 7, N^7-(4-tert-Butyl-phenyl)-N^2-(2,6-dichloro-phenyl)-5-methyl-thiazolo[5,4-d]pyrimidine-2,7-diamine]
Human TRPV1
  IC50: 5 nM
Rat TRPV1
  IC50: 1 nM

## CC(C)(C(=O)O)c1ccc(Nc2ncnc3sc(Nc4c(Cl)cccc4Cl)nc23)cc1 [Example 230, 2-[4-({2-[(2,6-Dichlorophenyl)amino][1,3]thiazolo[5,4-d]pyrimidin-7-yl}amino)phenyl]-2-methylpropanoic acid]
Human TRPV1
  IC50: 43 nM
Rat TRPV1
  IC50: 2 nM

## OCC1CN(c2nc(Nc3ccc(C(F)(F)F)cc3)c3nc(Nc4c(Cl)cccc4Cl)sc3n2)CCO1 (racemic) [Example 146, (racemic)-{4-[2-(2,6-Dichloro-phenylamino)-7-(4-trifluoromethyl-phenylamino)-thiazolo[5,4-d]pyrimidin-5-yl]-morpholin-2-yl}-methanol]
Human TRPV1
  IC50: 646 nM
Rat TRPV1
  IC50: 319 nM

## Cc1ccc(Nc2ncnc3sc(Nc4c(C)cccc4C)nc23)cc1F [Example 148, N^2-(2,6-Dimethyl-phenyl)-N^7-(3-fluoro-4-methyl-phenyl)-thiazolo[5,4-d]pyrimidine-2,7-diamine]
Human TRPV1
  IC50: 735 nM
Rat TRPV1
  IC50: 126 nM

## Cc1nc(Nc2ccc3c(c2)N(C)CCC3)c2nc(Nc3c(Cl)cccc3Cl)sc2n1 [Example 139, N^2-(2,6-Dichloro-phenyl)-5-methyl-N^7-(1-methyl-1,2,3,4-tetrahydro-quinolin-7-yl)-thiazolo[5,4-d]pyrimidine-2,7-diamine]
Human TRPV1
  IC50: 280 nM
Rat TRPV1
  IC50: 78 nM

## O=S(=O)(c1ccc(Nc2ncnc3sc(Nc4c(Cl)cccc4Cl)nc23)cc1)N1CCNCC1 [Example 134, N^2-(2,6-Dichloro-phenyl)-N^7-[4-(piperazine-1-sulfonyl)-phenyl]-thiazolo[5,4-d]pyrimidine-2,7-diamine]
Human TRPV1
  IC50: 202 nM
Rat TRPV1
  IC50: 78 nM

## Cc1cccc(C)c1Nc1nc2c(Nc3cccc(C(F)(F)F)c3)ncnc2s1 [Example 42, N^2-(2,6-Dimethyl-phenyl)-N^7-(3-trifluoromethyl-phenyl)-thiazolo[5,4-d]pyrimidine-2,7-diamine]
Human TRPV1
  IC50: 4980 nM
Rat TRPV1
  IC50: 236 nM

## CC(C)C1CCCN1c1nc(Nc2ccc(S(C)(=O)=O)cc2)c2nc(Nc3c(Cl)cccc3Cl)sc2n1 (racemic) [Example 177, (racemic)-N^2-(2,6-Dichloro-phenyl)-5-(2-isopropyl-pyrrolidin-1-yl)-N^7-(4-methanesulfonyl-phenyl)-thiazolo[5,4-d]pyrimidine-2,7-diamine]
Human TRPV1
  IC50: 21 nM
Rat TRPV1
  IC50: 3 nM

## COC(=O)C(C)(C)c1ccc(Nc2ncnc3sc(Nc4c(Cl)cccc4Cl)nc23)cc1 [Example 229, Methyl 2-[4-({2-[(2,6-dichlorophenyl)amino][1,3]thiazolo[5,4-d]pyrimidin-7-yl}amino)phenyl]-2-methylpropanoate]
Human TRPV1
  IC50: 139 nM
Rat TRPV1
  IC50: 71 nM

## CS(=O)(=O)c1ccc(Nc2ncnc3sc(Nc4c(Cl)cccc4Cl)nc23)cc1 [Example 87, N^2-(2,6-Dichloro-phenyl)-N^7-(4-methanesulfonyl-phenyl)-thiazolo[5,4-d]pyrimidine-2,7-diamine]
Human TRPV1
  IC50: 6 nM
Rat TRPV1
  IC50: 4 nM

## CC(C)(O)CNc1nc(Nc2ccc(C(F)(F)F)cc2)c2nc(Nc3c(Cl)cccc3Cl)sc2n1 [Example 251, 1-[2-(2,6-Dichloro-phenylamino)-7-(4-trifluoromethyl-phenylamino)-thiazolo[5,4-d]pyrimidin-5-ylamino]-2-methyl-propan-2-ol]
Human TRPV1
  IC50: 290 nM
Rat TRPV1
  IC50: 110 nM

## CC(=O)c1ccc(Nc2ncnc3sc(Nc4c(C)cccc4C)nc23)cc1 [Example 128, 1-{4-[2-(2,6-Dimethyl-phenylamino)-thiazolo[5,4-d]pyrimidin-7-ylamino]-phenyl}-ethanone]
Human TRPV1
  IC50: 138 nM
Rat TRPV1
  IC50: 121 nM

## Cc1ccc(CNc2ncnc3sc(Nc4c(C)cccc4C)nc23)o1 [Example 47, N^2-(2,6-Dimethyl-phenyl)-N^7-(5-methyl-furan-2-ylmethyl)-thiazolo[5,4-d]pyrimidine-2,7-diamine]
Human TRPV1
  IC50: > 6670 nM
Rat TRPV1
  IC50: > 6670 nM

## CS(=O)(=O)c1ccccc1Nc1nc2c(Nc3ccc(C(F)(F)F)cc3)ncnc2s1 [Example 201, N^2-(2-Methanesulfonyl-phenyl)-N^7-(4-trifluoromethyl-phenyl)-thiazolo[5,4-d]pyrimidine-2,7-diamine]
Human TRPV1
  IC50: 257 nM
Rat TRPV1
  IC50: 244 nM

## CC(C)(C#N)c1ccc(Nc2ncnc3sc(Nc4c(Cl)cccc4Cl)nc23)cc1 [Example 228, 2-[4-({2-[(2,6-Dichlorophenyl)amino][1,3]thiazolo[5,4-d]pyrimidin-7-yl}amino)phenyl]-2-methylpropanenitrile]
Human TRPV1
  IC50: 101 nM
Rat TRPV1
  IC50: 98 nM

## CSc1ccc(Nc2ncnc3sc(Nc4c(C)cccc4C)nc23)cc1 [Example 120, N^2-(2,6-Dimethyl-phenyl)-N^7-(4-methylsulfanyl-phenyl)-thiazolo[5,4-d]pyrimidine-2,7-diamine]
Human TRPV1
  IC50: 64 nM
Rat TRPV1
  IC50: 15 nM

## Cc1cccc(C)c1Nc1nc2c(Nc3ccc(S(=O)(=O)N4CCOCC4)cc3)ncnc2s1 [Example 91, N^2-(2,6-Dimethyl-phenyl)-N^7-[4-(morpholine-4-sulfonyl)-phenyl]-thiazolo[5,4-d]pyrimidine-2,7-diamine]
Human TRPV1
  IC50: 7 nM
Rat TRPV1
  IC50: 1 nM

## Cc1nc(Nc2ccc(S(=O)(=O)N3CCCC3)cc2)c2nc(Nc3c(C)cccc3C)sc2n1 [Example 92, N^2-(2,6-Dimethyl-phenyl)-5-methyl-N^7-[4-(pyrrolidine-1-sulfonyl)-phenyl]-thiazolo[5,4-d]pyrimidine-2,7-diamine]
Human TRPV1
  IC50: 8 nM
Rat TRPV1
  IC50: 2 nM

## CC1CCCN1c1nc(Nc2ccc(C(F)(F)F)c(Cl)c2)c2nc(Nc3c(Cl)cccc3Cl)sc2n1 (racemic) [Example 130, (racemic)-N^7-(3-Chloro-4-trifluoromethyl-phenyl)-N^2-(2,6-dichloro-phenyl)-5-(2-methyl-pyrrolidin-1-yl)-thiazolo[5,4-d]pyrimidine-2,7-diamine]
Human TRPV1
  IC50: 170 nM
Rat TRPV1
  IC50: 87 nM
